Assay results published in ChEMBL document CHEMBL2203227, “Macrocycles are great cycles: applications, opportunities, and challenges of synthetic macrocycles in drug discovery” (J Med Chem, 2011).
Each block holds one compound with its values, some of them ahead of it.

How the values were obtained:
[1] = target: Growth hormone secretagogue receptor type 1 (Homo sapiens, UniProt Q92847); assay: Agonist activity at ghrelin receptor; type: functional
[2] = target: Angiotensin-converting enzyme (Homo sapiens, UniProt P12821); assay: Inhibition of ACE
Neprilysin = Neprilysin (Homo sapiens, UniProt P08473); assay: Inhibition of neutral endopeptidase
Hepatitis C virus [3] = assay: microbe, parasite or virus in culture
Description: Antiviral activity against HCV by cell based replicon assay

[4] = Inhibition of HCV NS3 protease; design: species or system Hepacivirus hominis
Renin = target: T1, Renin (Homo sapiens, UniProt P00797); assay: Inhibition of renin
T1 sequence (P00797 whole entry): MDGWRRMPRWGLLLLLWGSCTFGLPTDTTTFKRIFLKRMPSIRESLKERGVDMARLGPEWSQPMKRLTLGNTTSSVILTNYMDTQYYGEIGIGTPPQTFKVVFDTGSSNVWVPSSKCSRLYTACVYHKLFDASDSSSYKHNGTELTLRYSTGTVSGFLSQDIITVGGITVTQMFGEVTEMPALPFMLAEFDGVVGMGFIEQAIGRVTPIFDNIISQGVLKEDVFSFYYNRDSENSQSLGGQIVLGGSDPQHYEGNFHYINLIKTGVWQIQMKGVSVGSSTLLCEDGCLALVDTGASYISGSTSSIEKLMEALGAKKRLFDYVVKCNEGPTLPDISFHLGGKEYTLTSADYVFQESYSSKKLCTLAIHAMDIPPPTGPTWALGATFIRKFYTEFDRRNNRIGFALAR

Beta-secretase 1 = Beta-secretase 1 (Homo sapiens, UniProt P56817); assay: Inhibition of BACE1
Prothrombin = Prothrombin (Homo sapiens, UniProt P00734); assay: Inhibition of thrombin
[5] = Selectivity ratio of IC50 for tPa to IC50 for thrombin
[6] = Selectivity ratio of IC50 for trypsin to IC50 for thrombin
[7] = Inhibition of GGTase
[8] = Inhibition of FTase
[9] = Inhibition of HIV protease; design: species or system Human immunodeficiency virus
[10] = Oral bioavailability in rat; type: ADME, organism-based; details: in vivo
[11] = Inhibition of HDAC by fluorimetry assay
[12] = Inhibition of HCV 1a NS3 protease; design: species or system Hepatitis C virus subtype 1a
Hepatitis C virus [13] = assay: Inhibition of HCV 1b NS3 protease; design: species or system Hepatitis C virus subtype 1b
[14] = target: Sonic hedgehog protein (Mus musculus) (UniProt Q62226); assay: Inhibition of sonic hedgehog pathway in mouse NIH-3T3 cells relative to control; type: cell-based; details: NIH3T3

Neprilysin, sequence (P08473 whole entry): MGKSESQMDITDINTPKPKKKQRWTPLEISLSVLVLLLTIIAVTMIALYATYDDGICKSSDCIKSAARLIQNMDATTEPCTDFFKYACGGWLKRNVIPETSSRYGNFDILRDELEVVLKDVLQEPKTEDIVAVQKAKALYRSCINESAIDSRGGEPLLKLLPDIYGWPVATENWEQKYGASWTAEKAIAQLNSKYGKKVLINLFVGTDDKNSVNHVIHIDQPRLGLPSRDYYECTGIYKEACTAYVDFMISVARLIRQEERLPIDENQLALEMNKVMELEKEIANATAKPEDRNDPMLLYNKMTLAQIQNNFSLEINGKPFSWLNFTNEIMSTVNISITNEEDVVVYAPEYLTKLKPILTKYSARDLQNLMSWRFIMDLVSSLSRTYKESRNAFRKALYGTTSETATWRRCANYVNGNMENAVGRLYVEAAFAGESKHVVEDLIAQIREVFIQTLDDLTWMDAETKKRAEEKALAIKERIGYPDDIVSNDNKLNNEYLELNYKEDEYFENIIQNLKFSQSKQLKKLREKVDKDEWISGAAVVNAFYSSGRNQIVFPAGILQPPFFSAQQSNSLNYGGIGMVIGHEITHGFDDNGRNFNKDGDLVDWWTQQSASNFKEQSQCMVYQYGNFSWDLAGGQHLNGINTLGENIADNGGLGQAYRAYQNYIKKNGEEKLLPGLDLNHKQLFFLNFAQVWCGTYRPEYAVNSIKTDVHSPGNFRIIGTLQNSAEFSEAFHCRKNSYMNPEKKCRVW
Growth hormone secretagogue receptor type 1, sequence (Q92847 whole entry): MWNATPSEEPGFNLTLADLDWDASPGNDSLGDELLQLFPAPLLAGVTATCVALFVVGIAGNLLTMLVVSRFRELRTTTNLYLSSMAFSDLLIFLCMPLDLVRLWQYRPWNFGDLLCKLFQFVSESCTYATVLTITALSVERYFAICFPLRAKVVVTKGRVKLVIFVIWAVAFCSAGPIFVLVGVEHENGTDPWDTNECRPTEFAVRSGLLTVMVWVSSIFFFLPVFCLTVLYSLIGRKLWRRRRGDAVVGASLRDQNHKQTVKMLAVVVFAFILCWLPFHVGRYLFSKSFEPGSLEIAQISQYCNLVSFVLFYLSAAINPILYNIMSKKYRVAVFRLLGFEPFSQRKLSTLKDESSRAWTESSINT
Angiotensin-converting enzyme, sequence (P12821 whole entry): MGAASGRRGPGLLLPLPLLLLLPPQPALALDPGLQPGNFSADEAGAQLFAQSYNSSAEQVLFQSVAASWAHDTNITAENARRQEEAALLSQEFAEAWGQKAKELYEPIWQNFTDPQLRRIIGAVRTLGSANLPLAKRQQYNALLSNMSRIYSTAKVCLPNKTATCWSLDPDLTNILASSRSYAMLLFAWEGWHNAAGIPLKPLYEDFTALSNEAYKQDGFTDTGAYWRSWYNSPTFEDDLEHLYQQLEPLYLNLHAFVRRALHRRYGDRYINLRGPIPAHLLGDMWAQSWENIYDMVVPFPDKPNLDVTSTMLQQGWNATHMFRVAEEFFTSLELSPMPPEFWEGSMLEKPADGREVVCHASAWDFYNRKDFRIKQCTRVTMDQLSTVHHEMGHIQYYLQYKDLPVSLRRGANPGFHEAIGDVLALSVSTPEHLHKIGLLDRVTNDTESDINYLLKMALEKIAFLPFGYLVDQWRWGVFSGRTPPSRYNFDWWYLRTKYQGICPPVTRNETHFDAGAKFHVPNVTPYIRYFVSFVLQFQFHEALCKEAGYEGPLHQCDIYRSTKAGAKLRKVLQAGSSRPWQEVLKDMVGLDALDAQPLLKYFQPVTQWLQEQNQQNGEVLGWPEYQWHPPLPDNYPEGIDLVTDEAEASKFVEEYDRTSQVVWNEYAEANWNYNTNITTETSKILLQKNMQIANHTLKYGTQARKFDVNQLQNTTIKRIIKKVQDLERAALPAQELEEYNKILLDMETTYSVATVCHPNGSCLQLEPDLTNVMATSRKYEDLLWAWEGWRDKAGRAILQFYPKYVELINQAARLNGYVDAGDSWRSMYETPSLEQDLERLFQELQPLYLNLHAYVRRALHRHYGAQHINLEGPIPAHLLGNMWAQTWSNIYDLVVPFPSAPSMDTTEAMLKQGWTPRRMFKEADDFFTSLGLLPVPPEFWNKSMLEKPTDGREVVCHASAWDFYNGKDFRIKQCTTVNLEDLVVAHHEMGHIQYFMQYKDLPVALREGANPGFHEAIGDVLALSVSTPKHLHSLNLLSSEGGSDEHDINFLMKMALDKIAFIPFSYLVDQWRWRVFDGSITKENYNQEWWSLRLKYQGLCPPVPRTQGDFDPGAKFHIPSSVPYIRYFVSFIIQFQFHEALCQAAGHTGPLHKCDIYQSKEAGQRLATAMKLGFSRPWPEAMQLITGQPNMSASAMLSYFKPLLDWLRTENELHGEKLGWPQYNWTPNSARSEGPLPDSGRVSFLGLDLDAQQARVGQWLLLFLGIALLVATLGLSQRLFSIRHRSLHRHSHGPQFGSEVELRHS
Beta-secretase 1, sequence (P56817 whole entry): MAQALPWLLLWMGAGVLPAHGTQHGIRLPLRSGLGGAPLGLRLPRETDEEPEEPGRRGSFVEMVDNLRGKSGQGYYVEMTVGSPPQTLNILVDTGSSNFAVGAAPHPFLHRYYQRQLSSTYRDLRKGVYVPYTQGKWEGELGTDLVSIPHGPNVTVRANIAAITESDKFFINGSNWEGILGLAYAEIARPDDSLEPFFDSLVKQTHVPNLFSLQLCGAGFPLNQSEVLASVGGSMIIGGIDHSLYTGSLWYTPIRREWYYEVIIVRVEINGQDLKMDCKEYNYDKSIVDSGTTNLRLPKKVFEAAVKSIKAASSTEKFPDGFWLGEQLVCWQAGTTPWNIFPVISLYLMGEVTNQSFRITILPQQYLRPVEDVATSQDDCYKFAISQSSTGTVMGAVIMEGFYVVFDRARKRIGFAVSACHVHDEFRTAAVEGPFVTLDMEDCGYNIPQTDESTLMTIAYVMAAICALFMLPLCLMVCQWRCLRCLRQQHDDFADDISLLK

SMILES: O=C1N[C@H](C(=O)O)CCCCCc2cccc(c2)C[C@H]1CS
IC50 [2]: 4 nM
IC50 (Neprilysin): 8 nM

SMILES: C=C[C@@H]1C[C@]1(NC(=O)[C@@H]1C[C@@H]2CN1C(=O)[C@H](C(C)(C)C)NC(=O)OCCCC/C=C/c1ccc3ccnc(c3c1)O2)C(=O)NS(=O)(=O)C1CC1
IC50 (Hepatitis C virus [3]): 8.7 nM
Ki [4]: 0.18 nM

SMILES: CCCN(c1cc(COC(=O)[C@](C)(N)Cc2ccccc2)cc(C(=O)N[C@H](C)c2ccc(F)cc2)c1)S(C)(=O)=O
IC50 (Beta-secretase 1): 27 nM

SMILES: O=C1N[C@H](C(=O)O)CCCCCc2ccccc2C[C@H]1CS
IC50 [2]: 8000 nM
IC50 (Neprilysin): 3 nM

SMILES: O=C1COc2ccc(Cl)cc2CNC(=O)[C@@H]2CCCN2C(=O)[C@@H](C2CCCCC2)NC(=O)CCCCN1
Ratio IC50 [5]: > 2000
Ratio IC50 [6]: > 2000
Ki (Prothrombin): 0.4 nM

SMILES: C[C@H]1NCc2cncn2Cc2ccc(C#N)c(c2)Oc2ccc3cccc(c3c2)NC1=O
IC50 [7]: 313 nM
IC50 [8]: 1.3 nM

SMILES: CC[C@H](C)[C@H](NC(=O)[C@@H]1CCCN1C[C@H](O)[C@@H]1Cc2ccc(cc2)OCCCC(=O)N[C@@H](CC(N)=O)C(=O)N1)C(=O)N[C@H](C(N)=O)C(C)C
Ki [9]: 12 nM

SMILES: N#Cc1ccc2cc1Oc1ccc3c(c1)[C@@H](CC3)N1CC[C@@H](NCc3cncn3C2)C1=O
IC50 [7]: 18000 nM
IC50 [8]: < 1.6 nM

SMILES: O=C(CCCCCC1C2=NC(Cc3ccccc3)=C(O2)C(Cc2ccccc2)CCn2cc(nn2)CCCN1Cc1ccccc1)NO (stereo not drawn)
IC50 [11]: 4300 nM

SMILES: N#Cc1ccccc1Oc1ccc2cccc(N3CCN(Cc4cnc[nH]4)CC3=O)c2c1
IC50 [8]: 4500 nM

SMILES: O=C(C[C@@H]1C/C=C/CCC(=O)O[C@H](c2ccccc2)CNC1=O)NCc1ccc(Cl)cc1
Emax [14]: 91%

SMILES: COc1ccc(S(=O)(=O)N(CC(C)C)C[C@@H](O)[C@@H]2CCCCCCCCOc3c(O)cccc3C(=O)N2)cc1
IC50 [9]: 300 nM
Ki [9]: 0.7 nM

The next lines start with results.

Ki [1]: 6 nM
SMILES: CC[C@H](C)[C@@H]1NCCOc2ccccc2CCCNC(=O)[C@@H](Cc2ccccc2)NC(=O)[C@@H](C)N(C)C1=O

IC50 (Renin): 0.29 nM
SMILES: CC[C@H](C)[C@H](NC(=O)[C@@H](C[C@H](O)[C@H](CC1CCCCC1)NC(=O)[C@@H]1Cc2cn(cn2)CC(=O)N2CCC[C@H]2C(=O)N[C@@H](Cc2ccccc2)C(=O)N1)C(C)C)C(=O)NCc1ccccn1

IC50 (Renin): 56 nM
SMILES: CC(C)(C)C(=O)NCCOC(=O)N[C@@H](Cc1ccccc1)C(=O)N[C@H]1CCC(=O)NCCOC(=O)[C@H](O)[C@H](CC2CCCCC2)NC1=O

Ki (Prothrombin): 0.4 nM
SMILES: O=C1COc2ccc(Cl)cc2CNC(=O)[C@@H]2CCCN2C(=O)[C@@H](C2CCCCC2)NC(=O)CCN1

Ki (Prothrombin): 180 nM
SMILES: NC(N)=NCCC[C@@H]1NC(=O)[C@@H]2CCCN2C(=O)[C@@H](NC=O)CNC(=O)/C=C/[C@H](Cc2ccc(O)cc2)NC(=O)[C@@H](Cc2ccccc2)NC(=O)C1=O [CYCLOTHEONAMIDE A]

IC50 (Renin): 2700 nM
SMILES: CC[C@H](C)[C@H](NC(=O)[C@@H](NC[C@@H]1COCCCCCCCN(C(=O)[C@H](Cc2ccccc2)NC(=O)OC(C)(C)C)[C@@H](C)C(=O)N1)C(C)C)C(=O)N[C@@H](Cc1cnc[nH]1)C(=O)OC

IC50 (Renin): > 100000 nM
SMILES: CC[C@H](C)[C@H](NC(=O)[C@@H](NC[C@@H]1COCCCN(C(=O)[C@H](Cc2ccccc2)NC(=O)OC(C)(C)C)[C@@H](C)C(=O)N1)C(C)C)C(=O)N[C@@H](Cc1cnc[nH]1)C(=O)OC

EC50 [1]: 27 nM
bioavailability [10]: 16%
SMILES: C[C@@H]1CN[C@@H](C2CC2)C(=O)N(C)[C@H](C)C(=O)N[C@H](Cc2ccc(F)cc2)C(=O)NCCCc2ccccc2O1 [ULIMORELIN]

IC50 [4]: 1 nM
SMILES: C=C[C@@H]1C[C@]1(NC(=O)[C@@H]1C[C@@H](Oc2cc(-c3ccccc3)nc3cc(OC)ccc23)CN1C(=O)[C@@H](NC(=O)[C@@H](NC(C)=O)C1CCCCC1)C(C)(C)C)C(=O)O

Ki [12]: 1.4 nM
EC50 (Hepatitis C virus [3]): 7 nM
SMILES: COc1ccc2c(O[C@@H]3C[C@H]4C(=O)N[C@]5(C(=O)O)C[C@H]5/C=C\CCCCC[C@H](NC(=O)OC(C)(C)C)C(=O)N4C3)cc(-c3ccccc3)nc2c1
Ki (Hepatitis C virus [13]): 1 nM

EC50 (Hepatitis C virus [3]): 6.7 nM
Ki [4]: < 0.016 nM
SMILES: C=C[C@@H]1C[C@]1(NC(=O)[C@@H]1C[C@@H]2CN1C(=O)[C@H](C(C)(C)C)NC(=O)OCCCCCc1ccc3nc(-c4ccccc4)cc(c3c1)O2)C(=O)NS(=O)(=O)C1CC1

Ratio IC50 [5]: > 2000
Ratio IC50 [6]: > 2000
Ki (Prothrombin): 0.4 nM
SMILES: O=C1COc2ccc(Cl)cc2CNC(=O)[C@@H]2CCCN2C(=O)[C@@H](C2CCCCC2)NC(=O)CN1
